These results are taken from the supplement of paper PMC12076712.

A value given as a limit tells only on which side of the number the result lay.

Holding throughout (assay): pIC50, kinobeads binding competition
One assay has as its target BUB1 (UniProt O43683). In short, it runs like this:
(§1)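 Live Jurkat cells were treated with nine compound concentrations (top 30 μM, 1:4 steps) or DMSO for 60 min at 37 °C before lysis. Alternatively, Jurkat lysate or a 1:1:1:1 HEK293/K-562/HepG2/placenta lysate mix was incubated with nine concentrations (top 30 μM, 1:5 steps) for 60 min at 4 °C. Kinobeads-bound proteins were digested and quantified by TMT10 LC-MS/MS. pIC50 came from logistic dose-response fits (R drc package) of fold changes versus DMSO, in biological duplicates.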

For a further assay, the target named is BRAF (UniProt P15056). In short, it runs like this: as §1
BRAF, sequence (P15056 whole entry): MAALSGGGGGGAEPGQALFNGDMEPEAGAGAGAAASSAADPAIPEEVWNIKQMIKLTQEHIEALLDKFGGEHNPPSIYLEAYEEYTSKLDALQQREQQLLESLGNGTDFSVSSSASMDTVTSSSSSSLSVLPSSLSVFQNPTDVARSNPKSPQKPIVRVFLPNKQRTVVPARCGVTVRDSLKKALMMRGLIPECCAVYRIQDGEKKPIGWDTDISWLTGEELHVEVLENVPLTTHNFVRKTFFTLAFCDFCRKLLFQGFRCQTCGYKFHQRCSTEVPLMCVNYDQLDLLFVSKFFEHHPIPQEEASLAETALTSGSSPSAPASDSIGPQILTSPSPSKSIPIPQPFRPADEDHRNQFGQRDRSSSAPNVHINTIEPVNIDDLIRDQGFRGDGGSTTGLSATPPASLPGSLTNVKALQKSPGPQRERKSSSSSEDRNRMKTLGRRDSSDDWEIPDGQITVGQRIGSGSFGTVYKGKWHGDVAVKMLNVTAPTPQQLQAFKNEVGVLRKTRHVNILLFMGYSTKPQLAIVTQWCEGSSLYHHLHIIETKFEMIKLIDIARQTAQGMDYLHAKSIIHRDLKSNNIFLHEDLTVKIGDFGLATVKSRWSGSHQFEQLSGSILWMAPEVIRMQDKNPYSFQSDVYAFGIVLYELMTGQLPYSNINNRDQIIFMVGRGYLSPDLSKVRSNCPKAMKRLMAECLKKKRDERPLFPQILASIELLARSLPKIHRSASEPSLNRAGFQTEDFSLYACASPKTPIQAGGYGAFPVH
The target in another assay is TESK2 (UniProt Q96S53). In short, it runs like this: as §1
TESK2, sequence (Q96S53 whole entry, looked up): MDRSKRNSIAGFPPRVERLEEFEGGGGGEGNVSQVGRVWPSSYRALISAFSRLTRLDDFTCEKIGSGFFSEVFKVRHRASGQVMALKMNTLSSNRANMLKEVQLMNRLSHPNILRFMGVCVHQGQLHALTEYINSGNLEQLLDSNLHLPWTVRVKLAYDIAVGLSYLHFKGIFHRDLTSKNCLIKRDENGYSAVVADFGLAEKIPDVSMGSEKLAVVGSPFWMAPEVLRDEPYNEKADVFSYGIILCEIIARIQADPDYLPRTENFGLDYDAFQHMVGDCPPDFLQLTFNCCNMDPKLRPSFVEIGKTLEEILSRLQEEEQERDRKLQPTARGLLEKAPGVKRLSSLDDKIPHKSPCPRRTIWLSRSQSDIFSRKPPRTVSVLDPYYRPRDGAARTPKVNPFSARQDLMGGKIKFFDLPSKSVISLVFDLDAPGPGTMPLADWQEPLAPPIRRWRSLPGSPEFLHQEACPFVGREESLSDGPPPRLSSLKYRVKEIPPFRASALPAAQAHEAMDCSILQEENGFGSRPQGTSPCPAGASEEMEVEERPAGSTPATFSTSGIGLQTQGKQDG
The target in the next assay is BMPR1A (UniProt P36894). In a few lines:
as §1

In the next assay the target is T1, UniProt Q15139.
T1 sequence (whole entry): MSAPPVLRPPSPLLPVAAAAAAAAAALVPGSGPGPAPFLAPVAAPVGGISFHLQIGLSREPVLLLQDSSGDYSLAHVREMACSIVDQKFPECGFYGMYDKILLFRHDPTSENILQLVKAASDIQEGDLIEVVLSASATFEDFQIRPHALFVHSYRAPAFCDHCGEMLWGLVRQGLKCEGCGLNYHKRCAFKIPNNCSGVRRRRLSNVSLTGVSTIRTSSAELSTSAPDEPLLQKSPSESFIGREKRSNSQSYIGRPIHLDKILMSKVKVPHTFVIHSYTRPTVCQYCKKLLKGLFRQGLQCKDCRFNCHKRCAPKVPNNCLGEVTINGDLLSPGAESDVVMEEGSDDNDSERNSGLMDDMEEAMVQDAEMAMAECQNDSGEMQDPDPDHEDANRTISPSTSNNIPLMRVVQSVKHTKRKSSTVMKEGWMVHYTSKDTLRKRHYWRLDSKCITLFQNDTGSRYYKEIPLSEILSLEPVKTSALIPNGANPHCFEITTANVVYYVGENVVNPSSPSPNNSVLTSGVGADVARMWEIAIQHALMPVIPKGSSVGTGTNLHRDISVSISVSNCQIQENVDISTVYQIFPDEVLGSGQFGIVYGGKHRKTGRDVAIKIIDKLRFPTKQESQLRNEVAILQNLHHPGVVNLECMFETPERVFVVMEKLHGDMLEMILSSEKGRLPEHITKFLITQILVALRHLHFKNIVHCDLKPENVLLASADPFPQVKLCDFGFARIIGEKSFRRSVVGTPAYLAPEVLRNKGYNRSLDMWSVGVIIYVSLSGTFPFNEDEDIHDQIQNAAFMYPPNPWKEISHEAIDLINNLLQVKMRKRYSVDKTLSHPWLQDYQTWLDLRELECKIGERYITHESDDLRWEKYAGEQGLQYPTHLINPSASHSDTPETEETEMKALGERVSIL
The note with it: cell material: Lysate mix. In short, it runs like this:
as §1

The next assay deals with T2, EPHB3 (UniProt P54753).
T2 sequence (whole entry): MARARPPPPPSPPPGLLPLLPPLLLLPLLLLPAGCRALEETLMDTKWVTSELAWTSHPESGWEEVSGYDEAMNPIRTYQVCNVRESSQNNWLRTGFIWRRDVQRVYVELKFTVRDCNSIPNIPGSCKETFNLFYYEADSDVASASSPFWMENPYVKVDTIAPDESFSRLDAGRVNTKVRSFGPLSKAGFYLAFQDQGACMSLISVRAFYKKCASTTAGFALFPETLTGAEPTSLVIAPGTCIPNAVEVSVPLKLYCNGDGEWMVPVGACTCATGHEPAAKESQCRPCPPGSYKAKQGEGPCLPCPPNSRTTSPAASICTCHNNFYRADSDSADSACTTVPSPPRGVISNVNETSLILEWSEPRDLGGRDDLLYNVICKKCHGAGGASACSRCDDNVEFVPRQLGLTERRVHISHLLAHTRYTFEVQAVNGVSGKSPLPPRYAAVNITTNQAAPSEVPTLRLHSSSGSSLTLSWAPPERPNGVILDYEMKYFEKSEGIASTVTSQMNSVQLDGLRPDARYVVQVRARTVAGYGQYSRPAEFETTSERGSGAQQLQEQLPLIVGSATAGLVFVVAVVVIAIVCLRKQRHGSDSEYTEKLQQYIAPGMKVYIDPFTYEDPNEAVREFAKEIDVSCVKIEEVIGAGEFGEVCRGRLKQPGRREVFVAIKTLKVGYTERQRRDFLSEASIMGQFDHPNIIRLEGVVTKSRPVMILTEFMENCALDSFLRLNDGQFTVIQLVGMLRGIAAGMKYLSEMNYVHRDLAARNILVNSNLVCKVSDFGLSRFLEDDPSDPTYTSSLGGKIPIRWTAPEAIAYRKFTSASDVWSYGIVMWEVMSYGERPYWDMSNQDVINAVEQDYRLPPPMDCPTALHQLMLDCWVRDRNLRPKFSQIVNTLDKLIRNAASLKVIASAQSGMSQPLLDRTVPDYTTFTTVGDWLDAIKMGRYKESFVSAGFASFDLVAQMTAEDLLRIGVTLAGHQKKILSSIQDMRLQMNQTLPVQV
The note with it: cell material: Lysate mix. In short, it runs like this: as §1

A further assay addresses T3, PRKG1 (UniProt Q13976).
T3 sequence (whole entry): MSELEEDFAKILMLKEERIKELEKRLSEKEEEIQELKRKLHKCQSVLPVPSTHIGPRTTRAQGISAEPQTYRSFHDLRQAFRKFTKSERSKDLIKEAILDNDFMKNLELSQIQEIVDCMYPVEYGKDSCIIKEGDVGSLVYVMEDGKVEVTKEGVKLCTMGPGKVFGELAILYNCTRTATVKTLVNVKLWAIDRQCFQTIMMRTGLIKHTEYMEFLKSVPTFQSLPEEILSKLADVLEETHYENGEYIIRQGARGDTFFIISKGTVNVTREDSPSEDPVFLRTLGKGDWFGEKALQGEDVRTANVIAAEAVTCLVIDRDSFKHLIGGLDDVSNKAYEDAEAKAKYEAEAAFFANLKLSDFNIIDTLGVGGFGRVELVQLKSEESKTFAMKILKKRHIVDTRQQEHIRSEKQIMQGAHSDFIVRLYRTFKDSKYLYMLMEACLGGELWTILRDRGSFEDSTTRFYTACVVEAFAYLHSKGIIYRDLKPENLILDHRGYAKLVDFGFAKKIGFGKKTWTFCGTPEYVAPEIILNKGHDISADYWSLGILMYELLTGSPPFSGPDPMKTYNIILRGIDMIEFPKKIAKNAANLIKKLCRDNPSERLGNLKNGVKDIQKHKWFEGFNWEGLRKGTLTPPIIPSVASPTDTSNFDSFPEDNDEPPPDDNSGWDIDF
The note with it: cell material: Lysate mix. In short, it runs like this:
as §1

BUB1, sequence (O43683 whole entry, looked up): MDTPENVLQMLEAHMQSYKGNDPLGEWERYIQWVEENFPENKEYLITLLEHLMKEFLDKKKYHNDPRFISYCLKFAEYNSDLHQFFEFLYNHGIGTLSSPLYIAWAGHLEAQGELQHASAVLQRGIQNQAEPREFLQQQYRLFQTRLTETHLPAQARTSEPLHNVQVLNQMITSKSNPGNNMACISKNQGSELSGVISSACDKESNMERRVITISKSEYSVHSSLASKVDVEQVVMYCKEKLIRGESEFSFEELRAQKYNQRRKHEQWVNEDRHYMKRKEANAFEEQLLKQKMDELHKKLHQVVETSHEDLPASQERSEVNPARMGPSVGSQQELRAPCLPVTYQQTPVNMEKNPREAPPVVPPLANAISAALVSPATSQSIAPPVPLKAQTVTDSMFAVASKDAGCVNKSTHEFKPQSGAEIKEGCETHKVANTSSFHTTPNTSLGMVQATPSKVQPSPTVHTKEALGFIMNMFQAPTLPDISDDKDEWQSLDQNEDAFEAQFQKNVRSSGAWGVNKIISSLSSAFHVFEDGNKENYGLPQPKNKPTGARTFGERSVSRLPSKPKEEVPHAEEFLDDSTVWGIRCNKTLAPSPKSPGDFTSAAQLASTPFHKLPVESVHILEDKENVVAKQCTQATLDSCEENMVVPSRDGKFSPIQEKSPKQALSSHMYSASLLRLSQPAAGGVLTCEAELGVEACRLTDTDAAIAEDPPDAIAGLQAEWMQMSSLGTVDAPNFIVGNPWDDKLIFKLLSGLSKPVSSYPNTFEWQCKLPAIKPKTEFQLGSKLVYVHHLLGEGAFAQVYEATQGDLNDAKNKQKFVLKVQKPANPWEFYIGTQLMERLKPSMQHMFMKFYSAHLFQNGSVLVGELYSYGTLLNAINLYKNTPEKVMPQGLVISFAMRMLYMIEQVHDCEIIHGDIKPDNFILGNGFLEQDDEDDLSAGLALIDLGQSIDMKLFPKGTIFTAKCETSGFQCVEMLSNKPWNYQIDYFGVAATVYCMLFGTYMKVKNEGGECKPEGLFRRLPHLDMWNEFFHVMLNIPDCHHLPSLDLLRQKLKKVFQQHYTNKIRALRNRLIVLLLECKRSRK
BMPR1A, sequence (P36894 whole entry): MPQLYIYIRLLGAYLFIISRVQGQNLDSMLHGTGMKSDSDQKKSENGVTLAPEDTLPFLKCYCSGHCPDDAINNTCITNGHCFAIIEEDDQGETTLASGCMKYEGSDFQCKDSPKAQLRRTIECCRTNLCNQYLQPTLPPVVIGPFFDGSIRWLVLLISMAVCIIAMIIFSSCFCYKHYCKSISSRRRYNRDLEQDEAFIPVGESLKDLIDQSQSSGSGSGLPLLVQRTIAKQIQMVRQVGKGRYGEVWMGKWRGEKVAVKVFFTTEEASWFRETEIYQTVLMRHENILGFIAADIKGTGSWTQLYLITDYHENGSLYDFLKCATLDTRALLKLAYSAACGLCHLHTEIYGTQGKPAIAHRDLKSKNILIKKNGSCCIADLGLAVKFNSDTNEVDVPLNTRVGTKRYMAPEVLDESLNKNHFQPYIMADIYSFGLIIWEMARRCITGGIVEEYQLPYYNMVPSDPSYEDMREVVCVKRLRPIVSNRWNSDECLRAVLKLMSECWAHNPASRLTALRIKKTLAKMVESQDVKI

Broadly, the pIC50 is −log10 of the IC50, conventionally taken in molar units. High values mean a small IC50, low ones a large IC50. As for `O=C(NCCNC(=O)c1cc(Nc2cc(C3CC3)[nH]n2)nc(N2CCN(Cc3ccc(S(=O)(=O)F)cc3)CC2)n1)OC1CC/C=C/CCC1` (configuration not stated), the negative logarithm of the IC50 (pIC50) on BUB1 (cell material: Jurkat cells), at BUB1 (cell material: Jurkat lysate), on BUB1 (cell material: Lysate mix), at BRAF (cell material: Jurkat cells), at BRAF (cell material: Jurkat lysate) and on BRAF (cell material: Lysate mix) was under 4.52 each time. The negative logarithm of the IC50 (pIC50) on TESK2 (cell material: Jurkat lysate), on TESK2 (cell material: Lysate mix), at BMPR1A (cell material: Jurkat cells), on BMPR1A (cell material: Jurkat lysate), on BMPR1A (cell material: Lysate mix) and on UniProt Q15139 was under 4.52 throughout. In addition, the pIC50 at EPHB3 and at PRKG1 was under 4.52 throughout.
With `Cc1cc(Nc2cc(C(=O)NCCNC(=O)OC3CC/C=C/CCC3)nc(N3CCN(Cc4ccc(S(=O)(=O)F)cc4)CC3)n2)n[nH]1` (configuration not stated), the pIC50 at BUB1 (cell material: Lysate mix), at BRAF (cell material: Lysate mix), on TESK2 (cell material: Lysate mix), on BMPR1A (cell material: Lysate mix), on UniProt Q15139 and at EPHB3 was under 4.52 in each case. On PRKG1, this compound displayed a pIC50 of under 4.52.
Turning to `CCNC(=O)c1cc(Nc2cc(C)[nH]n2)nc(N2CCN(Cc3ccc(S(=O)(=O)F)cc3)CC2)n1`, the negative logarithm of the IC50 (pIC50) on BUB1 (cell material: Lysate mix), on BRAF (cell material: Lysate mix), on TESK2 (cell material: Lysate mix), at BMPR1A (cell material: Lysate mix), on UniProt Q15139 and at EPHB3 was under 4.52 each time. Also, the negative logarithm of the IC50 (pIC50) on PRKG1 is under 4.52.
As for `C#CCNC(=O)c1cc(Nc2cc(C3CC3)[nH]n2)nc(N2CCN(Cc3ccc(S(=O)(=O)F)cc3)CC2)n1`, the negative logarithm of the IC50 (pIC50) on BUB1 (cell material: Jurkat cells) is 5; at BUB1 (cell material: Jurkat lysate) it was under 4.52; at BUB1 (cell material: Lysate mix) it was under 4.52; on BRAF (cell material: Jurkat cells), 5.36; at BRAF (cell material: Jurkat lysate) it was under 4.52; on BRAF (cell material: Lysate mix), under 4.52. In addition, the negative logarithm of the IC50 (pIC50) at TESK2 (cell material: Jurkat cells) is under 4.52; on TESK2 (cell material: Jurkat lysate), under 4.52; at TESK2 (cell material: Lysate mix), under 4.52; at BMPR1A (cell material: Jurkat cells), 4.69; on BMPR1A (cell material: Jurkat lysate), under 4.52; at BMPR1A (cell material: Lysate mix) it was 4.99. For the same compound, the negative logarithm of the IC50 (pIC50) on UniProt Q15139, on EPHB3 and on PRKG1 was under 4.52 throughout.
Regarding `C#CCNC(=O)c1cc(Nc2cc(C)[nH]n2)nc(N2CCN(Cc3ccc(S(=O)(=O)F)cc3)CC2)n1`, the pIC50 on BUB1 (cell material: Lysate mix), on BRAF (cell material: Lysate mix), at TESK2 (cell material: Lysate mix), on BMPR1A (cell material: Lysate mix), at UniProt Q15139 and on EPHB3 was under 4.52 in each case. Besides, on PRKG1, the pIC50 was under 4.52.
As for `CCNC(=O)c1cc(Nc2cc(C3CC3)[nH]n2)nc(N2CCN(Cc3ccc(S(=O)(=O)F)cc3)CC2)n1`, the negative-log IC50 (pIC50) on BUB1 (cell material: Lysate mix) is under 4.52; at BRAF (cell material: Lysate mix), under 4.52; on TESK2 (cell material: Lysate mix), under 4.52; at BMPR1A (cell material: Lysate mix) it was 4.87; at UniProt Q15139 it was under 4.52; on EPHB3 it was under 4.52. The same compound registered a pIC50 at PRKG1 of under 4.52.
